How the values were obtained:
Conditions in all cases: 168 h, read-out: control
Septoria lycopersici = Septoria lycopersici (Leaf spot of tomato) in vitro test, radial growth on Potato Dextrose Agar
Pyricularia oryzae = test: microbe, parasite or virus in culture; type: cell-based
Alternaria solani = Alternaria solani (early blight of tomato/potato) in vitro test, radial growth on Potato Dextrose Agar
Rhizoctonia solani = system: Rhizoctonia solani
Botrytis cinerea = Botrytis cinerea (Gray mold) in vitro test, radial growth on Potato Dextrose Agar

Measured: inhibition of growth at 300 ppm

CCN(C)C=Nc1cc(C)c(C(=O)COc2ccc(Cl)cc2)cc1C [Compound 16, N′-(4-(2-(4-chlorophenoxy)acetyl)-2,5-dimethylphenyl)-N-ethyl-N-methylformimidamide]
> 70%: Septoria lycopersici | Pyricularia oryzae | Alternaria solani

CCN(C)C=Nc1cc(C)c(C(=O)CSc2ccccc2Br)cc1C [Compound 30, N′-(4-(2-((2-bromophenyl)thio)acetyl)-2,5-dimethylphenyl)-N-ethyl-N-methylformimidamide]
> 70%: all assays above

CCN(C)C=Nc1cc(C)c(C(=O)COc2ccccc2Br)cc1Cl [Compound 31, N′-(4-(2-(2-bromophenoxy)acetyl)-2-chloro-5-methylphenyl)-N-ethyl-N-methylformimidamide]
not listed: Botrytis cinerea
> 70%: all other assays above

CCN(C)C=Nc1cc(C)c(C(=O)COc2ccc(F)cc2)cc1C [Compound 33, N-ethyl-N′-(4-(2-(4-fluorophenoxy)acetyl)-2,5-dimethylphenyl)-N-methylformimidamide]
not listed: Botrytis cinerea
> 70%: all other assays above

CCN(C)C=Nc1cc(C)c(C(=O)COc2ccccc2Br)cc1C [Compound 34, N′-(4-(2-(2-bromophenoxy)acetyl)-2,5-dimethylphenyl)-N-ethyl-N-methylformimidamide]
not listed: Botrytis cinerea
> 70%: all other assays above

CCN(C)C=Nc1cc(C)c(C(=O)COc2ccc(C)cc2Cl)cc1C [Compound 93, N′-(4-(2-(2-chloro-4-methylphenoxy)acetyl)-2,5-dimethylphenyl)-N-ethyl-N-methylformimidamide]
> 70%: all assays above

CCN(C)C=Nc1cc(C)c(C(=O)COc2ccc(Cl)cc2Cl)cc1C [Compound 94, N′-(4-(2-(2,4-dichlorophenoxy)acetyl)-2,5-dimethylphenyl)-N-ethyl-N-methylformimidamide]
> 70%: all assays above

CCN(C)C=Nc1cc(C)c(C(=O)COc2cc(C)ccc2C)cc1C [Compound 95, N′-(4-(2-(2,5-dimethylphenoxy)acetyl)-2,5-dimethylphenyl)-N-ethyl-N-methylformimidamide]
> 70%: all assays above

CCN(C)C=Nc1cc(C)c(C(=O)COc2cc(Cl)ccc2C)cc1C [Compound 96, N′-(4-(2-(5-chloro-2-methylphenoxy)acetyl)-2,5-dimethylphenyl)-N-ethyl-N-methylformimidamide]
> 70%: all assays above

From patent US11524934B2, “Phenylamine compounds” (PI INDUSTRIES LTD., priority 2017, dated 2022)
